“And” between values parts separate entries of the source, which are not always exact repeats. Identical values can stand only once.
What was measured:
Format in all cases: binding
HRas^G12V [1] = target: T1, HRas^G12V (Homo sapiens (Human), UniProt P01112, G12V); experiment: 19F T2-CPMG NMR score
Outline: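 Fragments were pooled at 240 μM each with 50 μM HRas G12V in 25 mM sodium phosphate pH 7.4, 150 mM NaCl, 5 mM MgCl2, 1 mM TCEP-d16, 10% D2O, and screened by 1H-decoupled 1D 19F NMR at 600 MHz (64 scans, 5 s relaxation delay). T2-CPMG data were collected with 1 ms echoes and eight delays from 1 to 800 ms.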

KRAS^G12D-GDP [2] = target: T2, KRAS^G12D-GDP (Homo sapiens (Human), UniProt P01116, G12D); experiment: Overall activity in the various assays, KRAS^G12D-GDP
Method: (§1) The activity of compounds of the invention regarding KRAS^G12D-GDP was measured in the same as in Example 80. The results obtained with the compounds in the various assays described above are depicted in Table 23.

KRAS^G12D-GDP [3] = target: T2, KRAS^G12D-GDP; experiment: NMR Kd, KRAS^G12D-GDP; details: 1H 1D protein-observed NMR, read-out: 1H 1D PO NMR Kd
Method: ^1H/^15N Fast-HSQC experiments (Mori et al., Journal of Magnetic Resonance, Series B, Volume 108, Issue 1, July 1995, Pages 94-98) were recorded at a protein concentration of 50-100 μM.
Dissociation constants were obtained by monitoring changes in chemical shifts as a function of ligand concentration. The changes in chemical shifts (d) were calculated according to the following equation (Williamson, Progress in Nuclear Magnetic Resonance Spectroscopy, Volume 73, August 2013, Pages 1-16): d=√(1/2[δ_H^2+[…]]), Where δ are the changes in chemical shift in ppm for ^1H and ^15N and the correction factor (α) was set at 0.15.
^1H 1D protein-observed experiments were recorded with 15-50 μM protein. The standard Bruker 1D ^1H sequence with excitation sculpting (zgesgp) was employed. A relaxation delay of 1 s was employed in order to use 256 scans while still keeping experimental time fairly short. Changes in protein chemical shift or peak intensity in the methyl region were monitored against compound concentration.
as §1

wild type HRAS [4] = target: T3, wild type HRAS (Homo sapiens (Human), UniProt P01112); experiment: 19F DLB score, wild type HRAS
Method: (§2) Since the fragment library was curated using phosphate buffer, 25 mM sodium phosphate pH 7.4, 150 mM NaCl, 5 mM MgCl2, 1 mM TCEP-d16, 10% D2O Fresh TCEP was used for experiments. Screening was performed using ^1H-decoupled 1D ^19F experiment Bruker experiment (zgfhigqn.2) with 64 scans and a relaxation delay of 5 seconds. 50 μM HRas^G12V and 240 μM of each fragment in pools (mixtures) were used.
(§3) Hit confirmation was performed using the same ^19F experiment as the screen. Ligand-observed 1D ^1H, protein-observed 1D ^1H, ^1H T2-CPMG as well as Saturation Transfer Difference (STD) experiments were also run on the same samples. Ligand-observed 1D ^1H was run using the standard Bruker sequence with excitation sculpting (zgesgp) with a relaxation delay of 10 seconds and 16 scans per spectrum. Protein-observed 1D ^1H was performed using the same sequence with a relaxation delay of 1 second and 256 scans in order to increase the signal-to-noise of the protein resonances, while keeping the experimental time relatively short. The ^1H T2-CPMG experiment employed a modified version of the Bruker 1D ^1H zgesgp experiment with the addition of a CPMG pulse train after the first 90° excitation pulse. Total duration for each spin echo was fixed at 1 ms (τ=500 μs), while the number of echoes in the pulse train was varied according to the total time (T). The number of scans for each spectrum was 4 and eight delay times were run on each sample, ranging from 1 ms to 800 ms.
(§4) The activity of compounds of the invention regarding wild type HRAS was measured in the same as in Example 80. The results obtained with the compounds in the various assays described above are depicted in Table 2.

wild type HRAS [5] = target: T3, wild type HRAS; experiment: 19F T2-CPMG score, wild type HRAS
Method: as §2, §3, §4

HRas^G12V [6] = target: T1, HRas^G12V; experiment: Dissociation constant by SPR
Method: SPR experiments were performed using the P4SPR from Affinité Instruments using Ni-NTA immobilization chips and his-tagged protein. Ni-NTA coated surfaces allow the immobilization of his-tagged proteins by chelation of histidine residues to the nickel ion. The sensor chip was inserted into a quad inlet model P4SPR (with 4 independent channels). Once the instrument was turned on, the baseline was stabilized by deionized (DI) water, followed by signal stabilization by the running buffer. His-tagged protein at 10 μg/mL was injected into all 4 channels of the P4SPR and was left to react for 20 min. The sensor chip was then washed with DI water. The lowest concentration of the ligand was injected into the channels of the P4SPR and was left to react for 10 min. The SPR shift was saved. Then, a higher concentration of the ligand was injected, and the sample injection steps were repeated until all 5 concentrations have been added. The KD of the binding interaction between the ligand and protein was determined by using the affinity curve fitting function in the P4SPR Control software.

T3 sequence (P01112 whole entry, the tested form may be a part): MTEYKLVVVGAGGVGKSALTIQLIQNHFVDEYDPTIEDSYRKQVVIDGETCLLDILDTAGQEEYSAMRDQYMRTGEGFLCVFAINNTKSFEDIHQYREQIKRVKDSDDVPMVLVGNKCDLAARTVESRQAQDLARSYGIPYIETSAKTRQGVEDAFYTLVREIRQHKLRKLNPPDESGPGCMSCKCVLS
T1 sequence (P01112 1-166 G12V): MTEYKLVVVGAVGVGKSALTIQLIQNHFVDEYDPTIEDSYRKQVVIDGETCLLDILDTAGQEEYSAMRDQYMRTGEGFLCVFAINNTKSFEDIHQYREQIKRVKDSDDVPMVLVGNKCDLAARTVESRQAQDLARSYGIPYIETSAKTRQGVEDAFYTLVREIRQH

19F T2-CPMG Score (HRas^G12V [1]) | Activity ranking on KRAS^G12D-GDP (in words) (KRAS^G12D-GDP [2]) | Kd (KRAS^G12D-GDP [3]) | 19F DLB Score (wild type HRAS [4]) | 19F T2-CPMG Score (wild type HRAS [5]) | Kd (HRas^G12V [6]) | Compound
32.13 | most active | 1900 to 4030 µM |  |  |  | O=C(Cc1c[nH]c2cc(F)ccc12)N1CCC(O)CC1 [Compound 10086]
33.38 |  |  | 4.57 | <LLOQ |  | CN(C)CCOc1cccc(NC(=O)Cc2c[nH]c3cc(F)ccc23)c1 [Compound 10095, N-(3-(2-(dimethylamino)ethoxy)phenyl)-2-(6-fluoro-1H-indol-3-yl)acetamide]
38.49 |  |  | 7.61 | <LLOQ | 31 µM | CN(C)CC(=O)Nc1cccc(NC(=O)Cc2c[nH]c3cc(F)ccc23)c1 [compound 10097]

Compound | 19F T2-CPMG Score (HRas^G12V [1]) | Activity ranking on KRAS^G12D-GDP (in words) (KRAS^G12D-GDP [2]) | Kd (KRAS^G12D-GDP [3]) | 19F DLB Score (wild type HRAS [4]) | 19F T2-CPMG Score (wild type HRAS [5]) | Kd (HRas^G12V [6])
CC(C)N1CCC(NC(=O)Cc2c[nH]c3cc(F)ccc23)CC1 [Compound 10018] | 10.62 and 11.88 and 18.24 and 9.37 and 15.13 | most active | 5020 to 6250 µM |  |  | 

— patent US20240408064A1, “RAS INHIBITORS, COMPOSITIONS AND METHODS OF USE THEREOF” (GENETOLEAD INC., priority 2021, published 2024)
